In US12303509B2, “Compounds for the treatment of BRAF-associated diseases and disorders” (Pfizer Inc., priority 2020, dated 2025) one finds IC50, efflux ratio and Papp data, which are given here for 7 compounds.

Structures can show the parent of a compound that is named as a salt.

One data set relates to H1755 cells. Nature of the data set: Cellular phospho-ERK inhibition assay in H1755 cells. It is filed as cell-based. The note with it: Homo sapiens, NCI-H1755, 2 hours treatment, read-out: H1755 Cell IC50. Here is the method: A375 and H1755 cells were obtained from the American Type Culture Collection (ATCC, Rockville, MD). A375 cells were maintained in DMEM growth medium containing 10% FBS. H1755 cells were maintained in RPMI growth medium containing 10% FBS.
Cells were harvested according to standard protocols, counted and plated onto flat-bottom, 96-well tissue culture plates (Costar #3599) at 2.5×10^4 cells/well for A375 cells and 1.5×10^4 cells/well for H1755 cells in 100 μL/well of growth medium containing 10% FBS. After an overnight incubation at 37° C. with 5% CO2 cells were treated for 2 hours at 37° C., 5% CO2 with compounds prepared as a 9-point, 1:3.33 fold dilution series with final compound concentrations ranging from 66 pM-10 μM and a constant DMSO concentration of 0.25%. Control wells contained either 0.25% DMSO alone (uninhibited control) or 10 μM binimetinib (complete inhibition control). The levels of phosphorylated ERK are determined using an In Cell Western protocol: following compound incubation, growth medium was discarded, and cells were fixed with 0.4% formaldehyde in PBS for 20 minutes at room temperature. Cells were permeabilized with 100% methanol for 10 minutes at room temperature. Plates were washed with PBS containing 0.05% Tween-20 and blocked for 1 hour at room temperature with LI-COR Blocking Buffer (LI-COR Biosciences; Cat #927-40000). Plates were then incubated for 2 hours at room temperature with 50 μL of a 1:400 dilution of anti-phospho-ERK1/2 (Thr202/Tyr204) (Cell Signaling; Cat #9101) and a 1:1000 dilution of anti-GAPDH (Millipore; Cat #MAB374) in LI-COR blocking buffer containing 0.05% Tween-20. Plates were washed with PBS containing […] Tween-20 then incubated at room temperature for 1 hour with 50 μL of a 1:1000 dilution of anti-rabbit AlexaFluor 680 (Life Technologies; Cat #A21109) and a 1:1000 dilution of anti-mouse IRDye 800CW (LI-COR; Cat #926-32210) in LI-COR blocking buffer containing 0.05% Tween-20. Plates were analyzed by reading on an Odyssey CLx infrared scanner. For each well, the phospho-ERK signal was normalized to the GAPDH signal and converted to POC using the following equation:
[formula] • Where: • Xmax Average Uninhibited Controls • Xmin Average Complete Inhibition Controls IC50 values were then calculated using a 4-parameter fit in XLfit software and are provided in Table A1.

A further data set addresses BCRP (Homo sapiens (Human), UniProt Q9UNQ0). Nature of the data set: BCRP MDCKII permeability assay: efflux ratio. It is filed as in vitro ADME. As to conditions: dog.
The next data set addresses P-gp (MDR1) (Homo sapiens (Human), UniProt P08183). Nature of the data set: MDR1 LLC-PK1 permeability assay: efflux ratio. The format is in vitro ADME. As to conditions: pig. The source says:
(§1) Final organic concentration in the assay was 1%.

The target of data set [1] is full-length FLAG-tagged B-Raf(V600E) (Homo sapiens (Human), UniProt P15056, V600E). Nature of the data set: BRAF V600E enzyme assay (TR-FRET competitive displacement). As to conditions: averaged IC50; TR-FRET tracer displacement, 60 min. It is filed as binding. A digest of the protocol: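 Displacement of 50 nM Tracer 1710 from 5 nM full-length N-terminally FLAG-tagged B-Raf(V600E), detected by TR-FRET with 0.5 nM Eu anti-FLAG antibody, in 25 mM HEPES pH 7.4, 10 mM MgCl2, 2% DMSO; 60 min at ~22 °C. Compounds 11-point, 3-fold from 10 μM; IC50 from 4-parameter fit at 50 POC.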
On the technique in general: In TR-FRET formats the signal depends on donor and acceptor labels being close together.

A further data set concerns A375 cells. Nature of the data set: Cellular phospho-ERK inhibition assay in A375 cells. It is filed as cell-based. As to conditions: Homo sapiens, A-375, A375 cells (head prints A357), 2 hours treatment, read-out: A357 cell IC50. A digest of the protocol: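 A375 (DMEM) or H1755 (RPMI) cells in 10% FBS treated 2 h at 37 °C with 9-point series, 66 pM–10 μM, 0.25% DMSO. Phospho-ERK1/2 (Thr202/Tyr204) measured by In Cell Western, normalised to GAPDH and to DMSO and 10 μM binimetinib controls; IC50 by 4-parameter fit.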

Data set [2] in a line: MDR1 LLC-PK1 and BCRP MDCKII permeability assay: permeability coefficient (Papp). The format is in vitro ADME.
Source text: as §1

BCRP, sequence (Q9UNQ0 whole entry): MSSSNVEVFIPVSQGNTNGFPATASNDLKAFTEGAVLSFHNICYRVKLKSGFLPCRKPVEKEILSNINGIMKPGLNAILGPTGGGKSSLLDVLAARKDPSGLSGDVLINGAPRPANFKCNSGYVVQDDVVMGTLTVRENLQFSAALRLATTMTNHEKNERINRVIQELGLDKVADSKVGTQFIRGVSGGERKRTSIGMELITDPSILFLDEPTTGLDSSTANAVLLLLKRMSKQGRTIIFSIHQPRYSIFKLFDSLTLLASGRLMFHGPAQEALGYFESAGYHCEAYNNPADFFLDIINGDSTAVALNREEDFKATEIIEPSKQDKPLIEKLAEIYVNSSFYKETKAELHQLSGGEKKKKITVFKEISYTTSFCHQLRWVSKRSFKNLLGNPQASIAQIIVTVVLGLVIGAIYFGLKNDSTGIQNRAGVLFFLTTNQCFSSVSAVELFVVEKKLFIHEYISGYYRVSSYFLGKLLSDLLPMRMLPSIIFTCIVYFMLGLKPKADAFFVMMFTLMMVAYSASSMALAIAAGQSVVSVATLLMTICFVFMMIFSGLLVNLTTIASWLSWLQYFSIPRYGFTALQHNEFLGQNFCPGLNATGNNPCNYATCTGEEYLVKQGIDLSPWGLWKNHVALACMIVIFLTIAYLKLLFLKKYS
P-gp (MDR1), sequence (P08183 whole entry, species assumed): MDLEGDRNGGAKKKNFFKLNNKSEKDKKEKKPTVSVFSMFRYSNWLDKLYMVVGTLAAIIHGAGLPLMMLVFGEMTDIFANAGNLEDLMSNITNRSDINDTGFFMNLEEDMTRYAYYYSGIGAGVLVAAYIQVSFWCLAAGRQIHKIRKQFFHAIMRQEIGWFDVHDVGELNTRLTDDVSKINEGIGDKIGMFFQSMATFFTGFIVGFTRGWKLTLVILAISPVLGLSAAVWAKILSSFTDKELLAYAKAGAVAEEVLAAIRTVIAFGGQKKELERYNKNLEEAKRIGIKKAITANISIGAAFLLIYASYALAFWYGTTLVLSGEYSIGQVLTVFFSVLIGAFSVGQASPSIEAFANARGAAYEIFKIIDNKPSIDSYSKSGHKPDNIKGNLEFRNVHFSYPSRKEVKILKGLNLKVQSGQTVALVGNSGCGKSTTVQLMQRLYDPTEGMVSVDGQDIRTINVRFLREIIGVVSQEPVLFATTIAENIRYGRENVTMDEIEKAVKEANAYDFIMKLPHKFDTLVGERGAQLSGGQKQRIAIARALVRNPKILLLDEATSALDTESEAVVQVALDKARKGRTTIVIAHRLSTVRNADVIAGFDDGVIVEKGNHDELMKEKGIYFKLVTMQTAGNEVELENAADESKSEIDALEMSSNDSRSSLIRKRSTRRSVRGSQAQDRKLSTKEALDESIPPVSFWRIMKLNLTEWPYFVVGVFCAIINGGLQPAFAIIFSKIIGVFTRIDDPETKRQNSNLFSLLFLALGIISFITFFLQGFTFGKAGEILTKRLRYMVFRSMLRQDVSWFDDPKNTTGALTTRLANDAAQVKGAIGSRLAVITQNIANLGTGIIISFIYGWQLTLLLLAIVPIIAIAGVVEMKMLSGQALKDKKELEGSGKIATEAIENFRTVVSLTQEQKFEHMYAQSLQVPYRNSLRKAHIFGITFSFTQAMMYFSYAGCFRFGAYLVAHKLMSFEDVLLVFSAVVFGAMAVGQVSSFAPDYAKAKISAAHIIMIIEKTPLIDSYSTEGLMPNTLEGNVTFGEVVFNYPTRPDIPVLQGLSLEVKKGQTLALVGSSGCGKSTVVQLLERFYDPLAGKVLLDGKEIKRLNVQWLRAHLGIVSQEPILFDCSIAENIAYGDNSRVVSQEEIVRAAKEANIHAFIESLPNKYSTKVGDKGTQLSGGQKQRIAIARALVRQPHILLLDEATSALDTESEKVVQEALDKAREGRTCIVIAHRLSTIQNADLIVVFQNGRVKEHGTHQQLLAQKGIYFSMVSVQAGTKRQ
full-length FLAG-tagged B-Raf(V600E), sequence (P15056 whole entry V600E): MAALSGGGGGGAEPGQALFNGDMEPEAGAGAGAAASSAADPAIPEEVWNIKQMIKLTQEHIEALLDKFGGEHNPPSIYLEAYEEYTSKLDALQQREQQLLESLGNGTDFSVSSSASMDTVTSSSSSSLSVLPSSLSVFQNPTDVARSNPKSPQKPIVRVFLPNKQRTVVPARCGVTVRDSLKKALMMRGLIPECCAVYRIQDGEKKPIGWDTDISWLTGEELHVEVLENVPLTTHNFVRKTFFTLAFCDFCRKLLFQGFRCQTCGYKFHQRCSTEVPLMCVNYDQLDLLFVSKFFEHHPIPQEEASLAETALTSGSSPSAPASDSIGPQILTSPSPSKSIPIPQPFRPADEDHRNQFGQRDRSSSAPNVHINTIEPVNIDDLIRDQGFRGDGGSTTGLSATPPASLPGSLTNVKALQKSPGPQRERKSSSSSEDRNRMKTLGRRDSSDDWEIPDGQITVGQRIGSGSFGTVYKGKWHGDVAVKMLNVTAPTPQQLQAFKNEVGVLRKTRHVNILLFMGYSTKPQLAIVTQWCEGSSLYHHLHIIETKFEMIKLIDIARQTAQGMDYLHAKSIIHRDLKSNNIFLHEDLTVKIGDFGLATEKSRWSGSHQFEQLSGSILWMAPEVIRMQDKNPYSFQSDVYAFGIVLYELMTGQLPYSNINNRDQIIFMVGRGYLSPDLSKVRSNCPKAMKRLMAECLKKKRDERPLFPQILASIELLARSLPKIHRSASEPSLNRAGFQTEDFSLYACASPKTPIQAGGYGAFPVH

Turning to `CO[C@@H]1CN(S(=O)(=O)Nc2ccc(F)c(Nc3ccc4ncn(C)c(=O)c4c3F)c2Cl)C[C@@H]1F` (relative stereo) [Example 15, cis-N-(2-chloro-4-fluoro-3-((5-fluoro-3-methyl-4-oxo-3,4-dihydroquinazolin-6-yl)amino)phenyl)-3-fluoro-4-methoxypyrrolidine-1-sulfonamide], the IC50 with H1755 cells is 16 nM; in data set [1], 6 nM; in the data set with A375 cells, 2 nM. Moreover, the efflux ratio at 2 h, 1 µM worked out at 13.4 on BCRP and 6.8 at P-gp (MDR1). In data set [2], this compound came in with a Papp at 2 h, 1 µM of 26 ×10⁻⁶ cm/s.
For the compound `CO[C@H]1CN(S(=O)(=O)Nc2ccc(F)c(Nc3ccc4ncn(C)c(=O)c4c3Br)c2Cl)C[C@H]1F` (relative stereo) [Example 16, cis-N-(3-((5-bromo-3-methyl-4-oxo-3,4-dihydroquinazolin-6-yl)amino)-2-chloro-4-fluorophenyl)-3-fluoro-4-methoxypyrrolidine-1-sulfonamide trifluoroacetate], the IC50 in the data set with H1755 cells amounted to 43 nM; in data set [1], 6 nM; in the data set on A375 cells it was 7 nM. Further, the efflux ratio at 2 h, 1 µM on BCRP turned out to be 4.5; on P-gp (MDR1), 5.9. In addition, in data set [2], the Papp at 2 h, 1 µM was 29 ×10⁻⁶ cm/s.
For `Cn1cnc2ccc(Nc3cc(Cl)cc(NS(=O)(=O)N4CC[C@@H](F)C4)c3F)c(Cl)c2c1=O` [Example 56, (R)-N-(5-chloro-3-((5-chloro-3-methyl-4-oxo-3,4-dihydroquinazolin-6-yl)amino)-2-fluorophenyl)-3-fluoropyrrolidine-1-sulfonamide trifluoroacetate], the IC50 in the data set with H1755 cells is 23 nM; in data set [1], 1 nM; in the data set with A375 cells it was 4 nM. Besides, the efflux ratio at 2 h, 1 µM on BCRP was 2.8; on P-gp (MDR1), 2.3.
Turning to `Cn1cnc2ccc(Nc3c(F)ccc(NS(=O)(=O)N4CC(F)C4)c3Cl)c(F)c2c1=O` [Example 127, N-(2-chloro-4-fluoro-3-((5-fluoro-3-methyl-4-oxo-3,4-dihydroquinazolin-6-yl)amino)phenyl)-3-fluoroazetidine-1-sulfonamide trifluoroacetate], the IC50 in the data set on H1755 cells is 16 nM; with A375 cells, 2 nM. Besides, the efflux ratio at 2 h, 1 µM on BCRP stood at 5.1; at P-gp (MDR1) it was 3.8. The Papp at 2 h, 1 µM in data set [2] is 34 ×10⁻⁶ cm/s.
Regarding `COCC1CN(S(=O)(=O)Nc2ccc(F)c(Nc3ccc4ncn(C)c(=O)c4c3F)c2Cl)C1` [Example 133, N-(2-chloro-4-fluoro-3-((5-fluoro-3-methyl-4-oxo-3,4-dihydroquinazolin-6-yl)amino)phenyl)-3-(methoxymethyl)azetidine-1-sulfonamide trifluoroacetate], the IC50 in the data set on H1755 cells was 11 nM; in data set [1] it was 5 nM; with A375 cells, 1 nM. For the same compound, on P-gp (MDR1), the efflux ratio at 2 h, 1 µM came to 5.7. Besides, the Papp at 2 h, 1 µM in data set [2] turned out to be 33 ×10⁻⁶ cm/s.
In the case of `Cn1cnc2ccc(Nc3c(F)ccc(NS(=O)(=O)N4CC(COC(F)F)C4)c3Cl)c(F)c2c1=O` [Example 139, N-(2-chloro-4-fluoro-3-((5-fluoro-3-methyl-4-oxo-3,4-dihydroquinazolin-6-yl)amino)phenyl)-3-((difluoromethoxy)methyl)azetidine-1-sulfonamide trifluoroacetate], the IC50 came to 10 nM in the data set with H1755 cells, 4 nM in data set [1] and 3 nM with A375 cells. Further, the efflux ratio at 2 h, 1 µM on P-gp (MDR1) came out at 5.3. Moreover, the apparent permeability (Papp) at 2 h, 1 µM in data set [2] was 32 ×10⁻⁶ cm/s.
Take `Cc1c(Nc2c(F)ccc(NS(=O)(=O)N3CC(C)(F)C3)c2Cl)ccc2ncn(C)c(=O)c12` [Example 155, N-(2-chloro-3-((3,5-dimethyl-4-oxo-3,4-dihydroquinazolin-6-yl)amino)-4-fluorophenyl)-3-fluoro-3-methylazetidine-1-sulfonamide trifluoroacetate]: the IC50 in the data set with H1755 cells came out at 1770 nM; in the data set on A375 cells it was 99 nM. In addition, the efflux ratio at 2 h, 1 µM amounted to 1.2 at BCRP and 1.4 on P-gp (MDR1). This compound gave a Papp at 2 h, 1 µM in data set [2] of 34 ×10⁻⁶ cm/s.

Usually IC50 stands for the concentration at which inhibition is half-maximal. Broadly, the efflux ratio is the permeability from basolateral to apical divided by that in the opposite direction, in the common usage. As usually defined, the Papp is the rate of passage across a membrane or cell layer, normalised by area and donor concentration. Higher therefore signals ready permeation.
